From ChEMBL document CHEMBL4483862, “Open-source discovery of chemical leads for next-generation chemoprotective antimalarials” (2018)

Tested on: Plasmodium berghei
Experiment: Luciferase/luciferin-expressing antifolate-resistant parasites were used to infect a culture of HepG2 cells that were pre-incubated with compounds. Infected hepatocytes emit light due to the luciferase reaction. Assay results are presented as the percent inhibition of light emission compared to control. […]
Type: functional
Conditions: sporozoite; for IC50: read-out: LUCIFERASE INFECTION ASSAY - IC50; for IC90: read-out: LUCIFERASE INFECTION ASSAY - IC90

## Cc1ccc(-c2csc(NC(=O)CSc3nc4ccccc4c(=O)n3CCCN(C)C)n2)cc1
  IC50: > 10 µM
  IC90: > 10 µM

## CC1CCN(CC(=O)Nc2cccc(C(=O)Nc3cccc(C(F)(F)F)c3)c2)CC1
  IC50: > 10 µM
  IC90: > 10 µM

## COc1ccc(OCc2nnc(SCC(=O)NCC3CCCO3)n2N)cc1 (configuration not stated)
  IC50: > 10 µM
  IC90: > 10 µM

## CCN(C(=O)CSc1nc2cc(C(=O)O)ccc2c(=O)n1Cc1ccccc1)c1ccccc1
  IC50: > 10 µM
  IC90: > 10 µM

## CCCn1c(O)nnc1SCC(=O)NC(C)C12CC3CC(CC(C3)C1)C2 (configuration not stated)
  IC50: > 10 µM
  IC90: > 10 µM

## NS(=O)(=O)c1ccc(CCNC(=O)c2ccc3nccnc3c2)cc1
  IC50: > 10 µM
  IC90: > 10 µM

## COc1ccc(NC(=O)c2ccc(NC(=O)c3nc4nccc(C)n4n3)cc2)cc1
  IC50: > 10 µM
  IC90: > 10 µM

## Cc1cccc(C(=O)NCCC(=O)NCc2ccccc2F)c1
  IC50: > 10 µM
  IC90: > 10 µM

## CC(C)(C)NC(=O)NC(=O)COC(=O)CNS(=O)(=O)c1ccc(Br)cc1Cl
  IC50: > 10 µM
  IC90: > 10 µM

## CCOc1ccc(NC(=O)c2ccc(NC(=O)CSc3nncs3)cc2)cc1
  IC50: > 10 µM
  IC90: > 10 µM

## CCn1c(C)nc2cc(C(=O)NNS(=O)(=O)c3cccc(Cl)c3Cl)ccc21.O=S(=O)(O)c1cccc(Cl)c1Cl
  IC50: > 10 µM
  IC90: > 10 µM

## COc1cc(/C=N/NC(=O)c2cc3c(s2)CCC(C)C3)ccc1OC(=O)c1ccco1 (configuration not stated)
  IC50: > 10 µM
  IC90: > 10 µM

## Cc1ccc(-c2nc(SCc3nc(=O)c4ccc(C(=O)O)cc4[nH]3)[nH]c2-c2ccc(C)cc2)cc1
  IC50: > 10 µM
  IC90: > 10 µM

## Cc1cccc(C)c1N(C(=O)CCNC(=O)c1ccccc1Cl)c1nc2ccccc2s1
  IC50: > 10 µM
  IC90: > 10 µM

## Cc1noc(C)c1COc1ccccc1C(=O)N1CCN(S(=O)(=O)c2cccc(C(F)(F)F)c2)CC1
  IC50: > 10 µM
  IC90: > 10 µM

## CC(C)(C)c1ccc(-c2nnc(SCC(=O)N(Cc3ccccc3)c3nc(-c4ccc(Cl)cc4)cs3)n2-c2ccc(Br)cc2)cc1
  IC50: > 10 µM
  IC90: > 10 µM

## CC(=O)c1cc2c(cc1NC(=O)c1cccc(S(=O)(=O)N3c4ccccc4CC3C)c1)OCO2 (configuration not stated)
  IC50: > 10 µM
  IC90: > 10 µM

## Cc1nc(N2CCCCC2)sc1C(=O)c1ccc(SCc2cc(Cl)cc3c2OCOC3)c([N+](=O)[O-])c1
  IC50: > 10 µM
  IC90: > 10 µM

## Cc1cc(SCC(=O)NNC(=O)c2ccc(NS(=O)(=O)c3cccs3)cc2)nc2ccccc12
  IC50: > 10 µM
  IC90: > 10 µM

## O=C(CN1c2cccc3cccc(c23)S1(=O)=O)N1CCN(C(=O)c2ccco2)CC1
  IC50: > 10 µM
  IC90: > 10 µM

## CN(CC(=O)Nc1ccc(F)c(F)c1F)C(C(=O)Nc1ccc(Cl)c(C(F)(F)F)c1)c1ccccc1 (configuration not stated)
  IC50: 6.74 µM
  IC90: > 10 µM

## Cc1cccc(C(=O)Nc2ccccc2C(=O)OCC(=O)c2c[nH]c3ccccc23)c1
  IC50: > 10 µM
  IC90: > 10 µM

## CSc1ccc(/C=N/OCC(=O)NCCc2ccc(Cl)cc2Cl)cc1
  IC50: > 10 µM
  IC90: > 10 µM

## CCOc1ccc(C(C)=O)cc1COC(=O)c1cc(-c2ccccc2)nc2c1c(C)nn2-c1ccccc1
  IC50: > 10 µM
  IC90: > 10 µM

## CC1CCCC(C)N1CCC(=O)NNC(=O)c1cc(-c2ccc(Cl)cc2)nc2ccccc12 (configuration not stated)
  IC50: 7.66 µM
  IC90: > 10 µM

## Cc1cccc2sc(N(Cc3ccccc3)C(=O)CSC(c3ccccc3)c3ccccc3)nc12
  IC50: > 10 µM
  IC90: > 10 µM

## O=C(Nc1sc2c(c1-c1nc3ccccc3[nH]1)CCCC2)c1nc(-c2ccccc2)n(-c2ccccc2)n1
  IC50: 9.63 µM
  IC90: > 10 µM

## O=c1c2ccccc2nc(Sc2ccc([N+](=O)[O-])c(C(F)(F)F)c2)n1-c1ccc(OC(F)F)cc1
  IC50: > 10 µM
  IC90: > 10 µM

## O=C(NCC12CC3CC(CC(C3)C1)C2)c1ccc2ccccc2c1
  IC50: > 10 µM
  IC90: > 10 µM

## OC12CC3CC(C1)CC(c1cc(-c4ccccc4Cl)c4cc(Cl)ccc4n1)(C3)C2
  IC50: > 10 µM
  IC90: > 10 µM

## Cc1ccc(-c2cc(C(=O)NNC(=O)CC34CC5CC(CC(C5)C3)C4)c3ccccc3n2)cc1
  IC50: > 10 µM
  IC90: > 10 µM

## C=CCn1c(-c2c(C)oc3ccccc23)cs/c1=N\S(=O)(=O)c1cccs1
  IC50: > 10 µM
  IC90: > 10 µM

## COC(=O)c1cc(Br)ccc1NC(=O)CCNC(=O)c1cccc(C)c1
  IC50: > 10 µM
  IC90: > 10 µM

## CCOC(=O)CCCNC(=O)COC(=O)c1cc(-c2ccco2)nc2ccccc12
  IC50: > 10 µM
  IC90: > 10 µM

## O=C(CCc1nc(=O)c2ccccc2[nH]1)OC(C(=O)c1c[nH]c2ccccc12)c1ccccc1 (configuration not stated)
  IC50: > 10 µM
  IC90: > 10 µM

## CCc1c(C)sc2nc(SCC3COc4ccccc4O3)n(-c3ccc(C)c(C)c3)c(=O)c12 (configuration not stated)
  IC50: > 10 µM
  IC90: > 10 µM

## O=C(Nc1nc(-c2ccc(F)cc2)cs1)c1cccc(S(=O)(=O)N2CCc3ccccc32)c1
  IC50: > 10 µM
  IC90: > 10 µM

## Cc1ccc(Cn2nc(C)c(/C=N/NC(=O)c3ccccc3NS(=O)(=O)c3cccs3)c2C)cc1
  IC50: > 10 µM
  IC90: > 10 µM

## FC(F)(F)c1cnc(Sc2nc(CN3CCOCC3)nc3scc(-c4ccccc4)c23)c(Cl)c1
  IC50: > 10 µM
  IC90: > 10 µM

## CCOC(=O)c1sc(N)c(C#N)c1COC(=O)C1CCN(S(=O)(=O)c2ccc(C)c(C)c2)CC1
  IC50: > 10 µM
  IC90: > 10 µM

## CC(OC(=O)C1CCN(C(=O)c2ccc(Cl)cc2)CC1)C(=O)Nc1ccc([N+](=O)[O-])cc1C(F)(F)F (configuration not stated)
  IC50: > 10 µM
  IC90: > 10 µM

## COC(=O)c1ccc(-n2c(C)cc(C(=O)COC(=O)c3cc4c(=O)n5ccccc5nc4s3)c2C)cc1
  IC50: 9.43 µM
  IC90: > 10 µM

## Cc1ccc(NC(=O)COc2ccc3c(=O)c(-c4ccccc4)c(C)oc3c2)cc1[N+](=O)[O-]
  IC50: > 10 µM
  IC90: > 10 µM

## CCn1c2ccccc2c2cc(NC(=O)C(C)OC(=O)c3ccc([N+](=O)[O-])o3)ccc21 (configuration not stated)
  IC50: > 10 µM
  IC90: > 10 µM

## CCOc1cc(N2CCOCC2)c(OCC)cc1NC(=O)c1n[nH]c(=O)c2ccccc12
  IC50: > 10 µM
  IC90: > 10 µM

## O=C(CCC(=O)c1ccc2c(c1)OCCO2)OCn1nnc2ccccc2c1=O
  IC50: > 10 µM
  IC90: > 10 µM

## O=C(NCC1COc2ccccc2O1)c1cccc(S(=O)(=O)N2CCC(Cc3ccccc3)CC2)c1 (configuration not stated)
  IC50: > 10 µM
  IC90: > 10 µM

## COc1ccc(N(CCC23CC4CC(CC(C4)C2)C3)S(=O)(=O)c2ccccc2)cc1
  IC50: > 10 µM
  IC90: > 10 µM

## O=C(CN1C(=O)NC2(CCCCC2)C1=O)NC1CCS(=O)(=O)C1 (configuration not stated)
  IC50: > 10 µM
  IC90: > 10 µM

## COc1ccc([N+](=O)[O-])cc1NC(=O)COC(=O)CSCc1c(C)noc1C
  IC50: > 10 µM
  IC90: > 10 µM

## COc1ccc(Cl)cc1NS(=O)(=O)c1cccc(C(=O)OC(C)C(=O)c2cc(C)n(-c3ccccc3)c2C)c1 (configuration not stated)
  IC50: > 10 µM
  IC90: > 10 µM

## COc1ccc(CNC(=O)/C=C/c2csc(N(C(C)=O)c3cccc(C(F)(F)F)c3)n2)cc1
  IC50: > 10 µM
  IC90: > 10 µM

## COc1ccc(OCCCC(=O)N(Cc2ccccc2)c2nc3c(C)cccc3s2)cc1
  IC50: > 10 µM
  IC90: > 10 µM

## CN(C)c1ccc(/C=C2\CCn3c2nc2scc(-c4ccccc4)c2c3=O)cc1[N+](=O)[O-]
  IC50: > 10 µM
  IC90: > 10 µM

## O=C(NNC(=O)c1cc(F)c(F)c(F)c1F)c1ccc(COc2cccc3cccnc23)cc1
  IC50: > 10 µM
  IC90: > 10 µM

## CC1CC(C)CN(C(=O)c2ccccc2C(=O)OCC(=O)NCc2cccs2)C1 (configuration not stated)
  IC50: > 10 µM
  IC90: > 10 µM

## CCOc1ccc(C(C)=O)cc1CSc1nnc(-c2ccc(F)cc2)c2ccccc12
  IC50: > 10 µM
  IC90: > 10 µM

## CCOC(=O)c1c(C)oc(NC(=O)CSc2nnc(-c3ccccc3)n2-c2ccc(C)c(C)c2)c1C#N
  IC50: > 10 µM
  IC90: > 10 µM

## CCOC(=O)c1c(-c2ccccc2)csc1NC(=O)C(C)OC(=O)c1ccccc1NS(=O)(=O)c1cccc(C(F)(F)F)c1 (configuration not stated)
  IC50: > 10 µM
  IC90: > 10 µM

## CC(OC(=O)c1ccc(=O)n(Cc2ccccc2)n1)C(=O)N1CCCc2ccccc21 (configuration not stated)
  IC50: > 10 µM
  IC90: > 10 µM

## CC(C)=CC(=O)Nc1scc(-c2ccccc2)c1C(=O)OCC(=O)N(CCC#N)c1cc(C)cc(C)c1
  IC50: > 10 µM
  IC90: > 10 µM

## Cc1cc(C)cc(OCC(O)CNC(C)CCC(C)C)c1 (configuration not stated)
  IC50: > 10 µM
  IC90: > 10 µM

## CC(OC(=O)c1ccccc1NS(=O)(=O)c1ccc2c(c1)OCCO2)C(=O)Nc1ccc([N+](=O)[O-])cc1C(F)(F)F (configuration not stated)
  IC50: > 10 µM
  IC90: > 10 µM

## Cc1ccc(C(=O)NC(c2ccccc2)c2ccccc2)s1
  IC50: > 10 µM
  IC90: > 10 µM

## O=c1c2ccccc2nc(SCc2coc(-c3cccs3)n2)n1-c1ccc(Cl)cc1
  IC50: > 10 µM
  IC90: > 10 µM

## CN(C)S(=O)(=O)c1ccc2oc3nnc(SCc4csc(-c5ccccc5)n4)n3c2c1
  IC50: > 10 µM
  IC90: > 10 µM

## Cc1ccccc1-n1c(Sc2ncccc2[N+](=O)[O-])nc2ccccc2c1=O
  IC50: > 10 µM
  IC90: > 10 µM

## COc1ccc(OCCCC(=O)N(c2nc3ccccc3s2)c2cc(C(F)(F)F)ccc2Cl)cc1
  IC50: > 10 µM
  IC90: > 10 µM

## CCCn1c(=O)c2ccccc2n2c(SCc3nc(=O)c4ccc(C(=O)O)cc4[nH]3)nnc12
  IC50: > 10 µM
  IC90: > 10 µM

## COC(=O)c1c(NC(=O)CN(C)Cc2ccc(OC(F)F)c(OC)c2)sc(C)c1C
  IC50: > 10 µM
  IC90: > 10 µM

## c1ccc(-c2csc3nc(-c4cccnc4)nc(NCC45CC6CC(CC(C6)C4)C5)c23)cc1
  IC50: > 10 µM
  IC90: > 10 µM

## COc1ccc2c(C)cc(SCc3nc(=O)c4c(-c5ccc(Cl)cc5)csc4[nH]3)nc2c1
  IC50: > 10 µM
  IC90: > 10 µM

## CCOC(=O)c1c(-c2ccc(C)o2)csc1NC(=O)CN(C)CC(=O)Nc1ccc(Cl)c(C(F)(F)F)c1
  IC50: > 10 µM
  IC90: > 10 µM

## CCc1cc2c(=O)n(NC(=S)Nc3ccc(OC)cc3)cnc2s1
  IC50: > 10 µM
  IC90: > 10 µM

## CC(C)(C)c1ccc(/C=N/NC(=O)CNc2ccccc2F)cc1
  IC50: > 10 µM
  IC90: > 10 µM

## Cn1c2ccccc2c2ccc(CC(=O)N/N=C/c3ccccc3)cc21
  IC50: > 10 µM
  IC90: > 10 µM
